Legend:
IgG = assay: Determination of Igs produced in in vitro culture: inhibition of IgG secreted by spleen cells (adoptive secondary immune response to DNP-As), ELISA; format: cell-based, BALB/c mice; conditions: Mus musculus, 96 h, 40.0 μg/ml, 4 days culture
Method in brief: (§1)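 Donor BALB/c mice primed i.p. with 5 μg DNP-As on alum; 5×10^7 spleen cells transferred i.v. into 600-rad-irradiated recipients, boosted likewise. After 4 weeks, recipient spleen cells (5×10^6 cells/ml) cultured ± compound 4 days at 37° C; secreted IgG/IgE quantified by ELISA, % inhibition vs untreated culture.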

IgE = assay: Determination of Igs produced in in vitro culture: inhibition of IgE secreted by spleen cells (adoptive secondary immune response to DNP-As), ELISA; format: cell-based, BALB/c mice; conditions: Mus musculus, 96 h, 40.0 μg/ml, 4 days culture
Method in brief: as §1

Compound | inhibition at 40 µg/mL (IgG) | inhibition at 40 µg/mL (IgE)
CSc1c(C#N)c(=O)n2ccccc2c1C(=O)N(C)Cc1ccccc1 [S-66, N-Benzyl-3-cyano-N-methyl-2-methylthio-4H-quinolizin-4-one-1-carboxamide] | 35% | 64%
CSc1c(C#N)c(=O)n2ccccc2c1C(=O)OC1C=CCCC1 (stereo not shown) [S-15, 2'-Cyclohexenyl 3-cyano-2-methylthio-4H-quinolizin-4-one-1-carboxylate] | 21% | 62%

Source: patent publication US4877795A, “4H-quinolizin-4-one compounds useful for the treatment of allergic bronchial asthma, allergic rhinitis atropic dermatitis and the like” (Kissei Pharmaceutical Co., Ltd., priority 1987, dated 1989)
